PMC7029632, “Routing Nanomolar Protein Cargoes to Lipid Raft‐Mediated/Caveolar Endocytosis through a Ganglioside GM1‐Specific Recognition Tag” (Advanced Science, 2020)

Experiments:
[1] = molecular target: ganglioside GM1; assay: ITC titration with GM1:DPC 1:5 bicelles; settings: two-independent-binding-site model, pH 7.2 phosphate, 35 °C, read-out: K D toward GM1 (tagged NeutrAvidin)
[2] = system: HeLa cells; assay: Flow cytometry (FACS) uptake of NA constructs and fluorescently labeled sequences, HeLa; settings: 1 µM cargo, 1 h, 37 °C, MEM+1% FBS, trypan blue quencher, triplicate
[3] = cited from earlier work
Excerpt: Helenius and Pelkmans pointed out that multivalent binding/clustering of ganglioside GM1 is necessary to trigger lipid raft‐mediated/caveolar endocytosis,9 and the tetravalent nature of our model carrier–cargo complex is consistent with this observation. On the other hand, the number of copies of the carrier sequence required for endocytosis can be crucial, especially if the carrier–cargo complex is produced by recombinant synthesis. […] CFU‐Penetratin, which has ...

[4] = system: Jurkat cells; assay: Uptake in competition with galectin-1, flow cytometry; format: cell-based, human; settings: only at concentrations orders of magnitude higher than serum galectin-1 level (6.7 nM)

Row | Kd [1] [nM] | Substance | level of uptake by FACS [2] | affinity for terminal digalactosides [3] | inhibition of GM1–WYKYW interaction by galectin-1 [4]
1 | 14.5 ± 1.7 | NA(biotinyl‐PEG‐WYKYW)4 | similar |  | 
2 |  | galectin‐1: protein binding terminal digalactosides, used as inhibitor |  | micromolar affinity | competitive inhibitor of the GM1–WYKYW interaction
